Data: ChEMBL document CHEMBL3779788, “Facile synthesis of 1,3-thiazolidin-4-ones as antitubercular agents” (Bioorg Med Chem Lett, 2016)
Values after ≈ are worked out from the molar mass of the structure shown.

How the values were obtained:
[1] = Cytotoxicity against human A549 cells at 10 ug/mL by MTT assay; format: cell-based; conditions: read-out: INH
[2] = Cytotoxicity against human HCT116 cells after 48 and 72 hrs by MTT assay; format: cell-based, HCT-116; conditions: for GI50 at 72 h: HCT116 cells; for GI90: hct-116, 72 h
[3] = system: Mycobacterium bovis BCG str. ATCC 35743; assay: Antitubercular activity against dormant Mycobacterium bovis BCG ATCC 35743 assessed as growth inhibition at 10 ug/mL by NR assay; format: functional
[4] = system: Mycobacterium tuberculosis; assay: Antitubercular activity against dormant Mycobacterium tuberculosis H37Ra assessed as growth inhibition at 10 ug/mL by XTT reduction menadione assay; format: functional; conditions: read-out: GI
[5] = system: Mycobacterium tuberculosis; assay: Antitubercular activity against dormant Mycobacterium tuberculosis H37Ra assessed as growth inhibition at 30 ug/mL by XTT reduction menadione assay; format: functional; conditions: read-out: GI
Escherichia coli = assay: Antibacterial activity against Escherichia coli after 18 hrs by broth dilution method; format: functional, organism-based
[6] = Cytotoxicity against human MCF7 cells at 30 ug/mL by MTT assay; format: cell-based; conditions: read-out: INH
[7] = Cytotoxicity against human A549 cells at 3 ug/mL by MTT assay; format: cell-based; conditions: read-out: INH
[8] = Cytotoxicity against human A549 cells at 30 ug/mL by MTT assay; format: cell-based; conditions: read-out: INH
Pseudomonas = assay: Antibacterial activity against Pseudomonas after 18 hrs by broth dilution method; format: functional, organism-based
[9] = system: Mycobacterium bovis BCG str. ATCC 35743; assay: Antitubercular activity against dormant Mycobacterium bovis BCG ATCC 35743 assessed as growth inhibition at 3 ug/mL by NR assay; format: functional
[10] = (§1) Cytotoxicity against human A549 cells after 48 and 72 hrs by MTT assay; format: cell-based; conditions: A549 cells
A549 = assay: as §1; format: cell-based; conditions: a549, 72 h
[11] = (§2) Antitubercular activity against dormant Mycobacterium bovis BCG ATCC 35743 by NR assay; format: functional, Mycobacterium bovis BCG str. ATCC 35743
[12] = system: Mycobacterium bovis BCG str. ATCC 35743; assay: as §2; format: functional
[13] = system: Mycobacterium tuberculosis; assay: Antitubercular activity against dormant Mycobacterium tuberculosis H37Ra by XTT reduction menadione assay; format: functional, organism-based
Bacillus subtilis = assay: Antibacterial activity against Bacillus subtilis after 18 hrs by broth dilution method; format: functional, organism-based
MCF7 = assay: (§3) Cytotoxicity against human MCF7 cells after 48 and 72 hrs by MTT assay; format: cell-based; conditions: mcf7, 72 h
[14] = as §3; format: cell-based; conditions: MCF7 cells
[15] = system: Mycobacterium tuberculosis; assay: Antitubercular activity against dormant Mycobacterium tuberculosis H37Ra assessed as growth inhibition at 3 ug/mL by XTT reduction menadione assay; format: functional; conditions: read-out: GI
[16] = Cytotoxicity against human HCT116 cells at 30 ug/mL by MTT assay; format: cell-based, HCT-116; conditions: read-out: INH
[17] = Cytotoxicity against human HCT116 cells at 3 ug/mL by MTT assay; format: cell-based, HCT-116; conditions: read-out: INH
Staphylococcus aureus = assay: Antibacterial activity against Staphylococcus aureus after 18 hrs by broth dilution method; format: functional, organism-based
[18] = Cytotoxicity against human MCF7 cells at 3 ug/mL by MTT assay; format: cell-based; conditions: read-out: INH
[19] = Cytotoxicity against human HCT116 cells at 10 ug/mL by MTT assay; format: cell-based, HCT-116; conditions: read-out: INH
[20] = Cytotoxicity against human MCF7 cells at 10 ug/mL by MTT assay; format: cell-based; conditions: read-out: INH
[21] = system: Mycobacterium bovis BCG str. ATCC 35743; assay: Antitubercular activity against dormant Mycobacterium bovis BCG ATCC 35743 assessed as growth inhibition at 30 ug/mL by NR assay; format: functional

SMILES | cytotoxicity at 10 ug/mL [1] | GI50 at 72 h [2] | GI90 [2] | growth inhibition (GI) [3] | inhibition of growth at 10 µg/mL [4] | inhibition of growth at 30 µg/mL [5] | IC50 (Escherichia coli) | MIC (Escherichia coli) | cytotoxicity at 30 ug/mL [6] | cytotoxicity at 3 ug/mL [7] | cytotoxicity at 30 ug/mL [8] | IC50 (Pseudomonas) | MIC (Pseudomonas) | growth inhibition (GI) [9] | GI50 at 72 h [10] | GI90 (A549) | IC50 [11] | IC90 [12] | IC50 [13] | IC90 [13] | further results
O=C1CSC(c2ccc(Br)cc2)N1c1ccccc1 (stereo unspecified) | 0% | > 100 µg/mL | > 100 µg/mL | 44.4% | 66.4% | 97.7% | > 30 µg/mL | > 30 µg/mL | 32.8% | 0% | 0% | > 30 µg/mL | > 30 µg/mL | 48.7% | > 100 µg/mL | > 100 µg/mL | > 30 µg/mL | > 30 µg/mL | 8.9 µg/mL (≈ 26.6 µM) | 25.2 µg/mL (≈ 75.4 µM) | IC50 (Bacillus subtilis): > 30 µg/mL; MIC (Bacillus subtilis): > 30 µg/mL; GI90 (MCF7): > 100 µg/mL; GI50 at 72 h [14]: > 100 µg/mL; inhibition of growth at 3 µg/mL [15]: -33.2%; cytotoxicity at 30 ug/mL [16]: 10.1%; cytotoxicity at 3 ug/mL [17]: 2.4%; IC50 (Staphylococcus aureus): > 30 µg/mL; MIC (Staphylococcus aureus): > 30 µg/mL; cytotoxicity at 3 ug/mL [18]: 22.1%; cytotoxicity at 10 ug/mL [19]: 4.9%; cytotoxicity at 10 ug/mL [20]: 23.8%; growth inhibition (GI) [21]: 48.8%
O=C1CSC(c2ccccc2)N1c1ccccc1 (stereo unspecified) | 0% | > 100 µg/mL | > 100 µg/mL | 15.4% | 31.7% | 34.5% | > 30 µg/mL | > 30 µg/mL | 31.7% | 0% | 0% | > 30 µg/mL | > 30 µg/mL | 14.2% | > 100 µg/mL | > 100 µg/mL | 20.7 µg/mL (≈ 81.1 µM) | > 30 µg/mL | > 30 µg/mL | > 30 µg/mL | IC50 (Bacillus subtilis): > 30 µg/mL; MIC (Bacillus subtilis): > 30 µg/mL; GI90 (MCF7): > 100 µg/mL; GI50 at 72 h [14]: > 100 µg/mL; inhibition of growth at 3 µg/mL [15]: 5%; cytotoxicity at 30 ug/mL [16]: 16.8%; cytotoxicity at 3 ug/mL [17]: 3.3%; IC50 (Staphylococcus aureus): > 30 µg/mL; MIC (Staphylococcus aureus): > 30 µg/mL; cytotoxicity at 3 ug/mL [18]: -4.2%; cytotoxicity at 10 ug/mL [19]: 3.2%; cytotoxicity at 10 ug/mL [20]: 5.3%; growth inhibition (GI) [21]: 80.7%
